From US6777445B2, “Fullerene pharmaceutical compositions for preventing or treating disorders” (priority 2000, dated 2004) come the findings set out here.

The test has as its system E. coli. Briefly: E. coli-induced meningitis death, C60(C3) given immediately before E. coli (Test 1). Type of test: in vivo, B6 mice. The note with it: 6 mg/kg i.p. C60(C3), again at 24 and 48 hours. On the procedure:
E. coli ATCC 10536 was cultured in Luria-Bertain (LB) broth (1% NaCl, 1% tryptone, 0.5% yeast extract) for 12 hours and was subcultured in fresh medium for another 3 h. The concentration of E. coli was determined with a spectrophotometer (Beckman Instrument, Somerset, N.J.), with an optical density at 600 nm of 1 equal to […] (Wang, S. D., et al., J. Immunol. 152:5014-5021). For the induction of meningitis, groups of three to four mice were given intracerebral injections directly into the temporal area of a volume of 5×10^5 E. coli cells diluted in saline. The 100% lethal dose (LD100) by intracerebral injection in B6 mice is 5×10^5 E. coli cells. The animals were observed every 12 hours for a total of 6 days. In some experiments, the brains were aseptically removed and were homogenized with 3% gelatin (Difco Laboratories, Detroit, Mich.) in PBS. The samples were serial diluted, poured in agar plates, and incubated at 37° C. overnight. The number of colony forming units (CFU) of E. coli was quantitated and was expressed as the mean±standard deviation per mouse. […] The growth curve of E. coli was determined in LB broth to evaluate the direct antimicrobial activity of C60(C3).
Groups of 10 B6 mice were inoculated intracerebrally with 5×10^5 E. coli per mouse. […] The mice were monitored for death every 12 hours for 6 days.

`C[C@@H]1C[C@H]2[C@@H]3CCC4=CC(=O)C=C[C@]4(C)[C@@]3(F)[C@@H](O)C[C@]2(C)[C@@]1(O)C(=O)CO` [dexamethasone]: the “mice protected from E. coli-induced death” value is listed as 20%.
